Test results reported in ChEMBL document CHEMBL1201862, “PubChem BioAssay data set” (2004).
Activity calls are given as the source filed them. For most assays here, no stated cut-off is given here; in the data, actives have a measured EC50 and inactives only a lower limit.

Test system: not listed separately
Test: NIH-3T3 fibroblast cytotoxicity, dose response, cytotoxicity control, cell-based, fluorescence, Alamar Blue, secondary assay (AID 2327);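 further: NIH-3T3 mouse fibroblasts cultured with fluconazole at 8 µg/mL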
Format: functional

Row | Compound | EC50
1 | CCCCC(=O)NC(c1ccccc1)c1ccc2cccnc2c1O (stereo not given) | 19.9 µM (inconclusive)
2 | CC(=O)N(Cc1ccc(F)cc1)C1=C(NCCc2ccccc2)C(=O)c2ccccc2C1=O | 9.84 µM (inconclusive)
3 | O=C(/C=C/c1cccs1)NC(=S)NNC(=O)c1ccccc1O | 35.5 µM (active)

Test system: not listed separately
Test: C. albicans growth with fluconazole, confirmation, fluorescence, retest (AID 2467)
Format: functional, cell-based

Row | Compound | EC50
4 | CCCCC(=O)NC(c1ccccc1)c1ccc2cccnc2c1O (stereo not given) | 0.569 µM (active)
5 | CC(=O)N(Cc1ccc(F)cc1)C1=C(NCCc2ccccc2)C(=O)c2ccccc2C1=O | 0.785 µM (active)
6 | O=C(/C=C/c1cccs1)NC(=S)NNC(=O)c1ccccc1O | > 38 µM (not active)

Target: T1, Apoptotic protease-activating factor 1 (Homo sapiens, UniProt O14727)
T1 sequence (O14727 whole entry): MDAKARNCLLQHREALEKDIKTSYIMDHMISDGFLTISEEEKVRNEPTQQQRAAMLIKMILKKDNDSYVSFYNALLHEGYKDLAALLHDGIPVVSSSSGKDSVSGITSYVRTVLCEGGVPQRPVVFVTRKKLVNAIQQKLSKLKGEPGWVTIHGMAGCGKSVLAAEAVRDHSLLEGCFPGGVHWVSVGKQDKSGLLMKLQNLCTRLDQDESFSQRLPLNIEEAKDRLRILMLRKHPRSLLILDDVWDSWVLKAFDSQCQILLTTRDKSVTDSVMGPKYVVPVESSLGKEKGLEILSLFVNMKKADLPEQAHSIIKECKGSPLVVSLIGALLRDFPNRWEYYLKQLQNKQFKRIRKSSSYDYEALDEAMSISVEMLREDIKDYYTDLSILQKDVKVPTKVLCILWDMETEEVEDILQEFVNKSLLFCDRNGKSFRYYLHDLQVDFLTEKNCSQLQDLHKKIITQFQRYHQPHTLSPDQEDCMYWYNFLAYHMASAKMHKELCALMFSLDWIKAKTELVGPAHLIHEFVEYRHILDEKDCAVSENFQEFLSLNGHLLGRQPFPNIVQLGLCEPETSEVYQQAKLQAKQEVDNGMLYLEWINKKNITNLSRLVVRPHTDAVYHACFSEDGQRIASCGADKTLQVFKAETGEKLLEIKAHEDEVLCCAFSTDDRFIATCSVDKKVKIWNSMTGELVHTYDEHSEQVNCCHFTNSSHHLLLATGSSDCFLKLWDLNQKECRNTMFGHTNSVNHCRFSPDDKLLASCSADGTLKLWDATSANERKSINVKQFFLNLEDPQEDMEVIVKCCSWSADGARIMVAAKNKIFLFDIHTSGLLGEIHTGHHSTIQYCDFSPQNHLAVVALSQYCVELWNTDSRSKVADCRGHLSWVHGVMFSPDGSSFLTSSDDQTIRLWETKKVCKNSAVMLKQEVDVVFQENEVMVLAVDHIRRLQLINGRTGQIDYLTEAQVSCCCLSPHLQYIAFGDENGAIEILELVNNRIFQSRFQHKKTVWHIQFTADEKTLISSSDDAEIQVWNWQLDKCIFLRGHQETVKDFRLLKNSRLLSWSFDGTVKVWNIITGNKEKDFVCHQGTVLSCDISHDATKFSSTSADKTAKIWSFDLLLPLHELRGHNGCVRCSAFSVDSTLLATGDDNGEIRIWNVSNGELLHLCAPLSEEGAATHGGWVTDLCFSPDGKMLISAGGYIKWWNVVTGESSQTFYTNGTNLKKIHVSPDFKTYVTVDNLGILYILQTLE
Format: functional

Row | Compound | IC50
7 | O=C(N/N=C1\C/C(=N\NC(=O)c2ccncc2)c2ccccc21)c1ccncc1 | 12.8 µM (active)
8 | COc1ccc(-n2c3nc4ccccc4nc3c3c(=N)oc(C)nc32)cc1 | 19.1 µM (active)
9 | CC(=O)N(Cc1ccc(F)cc1)C1=C(NCCc2ccccc2)C(=O)c2ccccc2C1=O | 7.39 µM (active)

Target: T2, Protein RecA (Mycobacterium tuberculosis, UniProt P9WHJ3)
T2 sequence (P9WHJ3 whole entry): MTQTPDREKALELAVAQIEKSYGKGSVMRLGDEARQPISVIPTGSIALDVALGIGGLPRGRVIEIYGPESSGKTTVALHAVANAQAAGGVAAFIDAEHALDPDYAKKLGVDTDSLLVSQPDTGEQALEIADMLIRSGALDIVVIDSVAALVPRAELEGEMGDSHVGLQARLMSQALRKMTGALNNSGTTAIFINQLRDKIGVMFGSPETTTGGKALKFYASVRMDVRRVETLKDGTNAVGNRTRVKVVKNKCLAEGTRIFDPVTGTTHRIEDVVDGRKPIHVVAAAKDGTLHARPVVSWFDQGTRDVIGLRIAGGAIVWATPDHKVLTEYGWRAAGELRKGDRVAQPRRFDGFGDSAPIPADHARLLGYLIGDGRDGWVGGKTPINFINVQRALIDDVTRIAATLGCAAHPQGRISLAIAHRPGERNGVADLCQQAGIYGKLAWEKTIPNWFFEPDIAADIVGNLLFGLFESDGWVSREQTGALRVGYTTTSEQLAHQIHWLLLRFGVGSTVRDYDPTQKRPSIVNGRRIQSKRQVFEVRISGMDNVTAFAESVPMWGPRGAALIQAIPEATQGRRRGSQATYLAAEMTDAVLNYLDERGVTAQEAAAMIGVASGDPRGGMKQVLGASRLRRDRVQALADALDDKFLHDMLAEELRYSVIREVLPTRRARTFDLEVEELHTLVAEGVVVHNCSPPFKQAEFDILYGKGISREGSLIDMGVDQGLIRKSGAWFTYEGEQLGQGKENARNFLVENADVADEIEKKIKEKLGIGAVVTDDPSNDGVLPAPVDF
Test: Fluorescence Cell-Free Homogeneous Dose Retest to Identify Inhibitors of RecA-Intein Splicing Activity. [Related pubchem assays (depositor defined):AID2097, AID2223, AID489010, AID492950]
Format: functional

Row | Compound | EC50
10 | O=C(N/N=C1\C/C(=N\NC(=O)c2ccncc2)c2ccccc21)c1ccncc1 | 0.732 µM (active)
11 | COc1ccc(-n2c3nc4ccccc4nc3c3c(=N)oc(C)nc32)cc1 | > 380 µM (inactive)
12 | CC(=O)N(Cc1ccc(F)cc1)C1=C(NCCc2ccccc2)C(=O)c2ccccc2C1=O | 1.42 µM (active)

Target: T3, Replicative DNA helicase DnaB (Mycobacterium tuberculosis, UniProt P9WMR3)
T3 sequence (P9WMR3 whole entry): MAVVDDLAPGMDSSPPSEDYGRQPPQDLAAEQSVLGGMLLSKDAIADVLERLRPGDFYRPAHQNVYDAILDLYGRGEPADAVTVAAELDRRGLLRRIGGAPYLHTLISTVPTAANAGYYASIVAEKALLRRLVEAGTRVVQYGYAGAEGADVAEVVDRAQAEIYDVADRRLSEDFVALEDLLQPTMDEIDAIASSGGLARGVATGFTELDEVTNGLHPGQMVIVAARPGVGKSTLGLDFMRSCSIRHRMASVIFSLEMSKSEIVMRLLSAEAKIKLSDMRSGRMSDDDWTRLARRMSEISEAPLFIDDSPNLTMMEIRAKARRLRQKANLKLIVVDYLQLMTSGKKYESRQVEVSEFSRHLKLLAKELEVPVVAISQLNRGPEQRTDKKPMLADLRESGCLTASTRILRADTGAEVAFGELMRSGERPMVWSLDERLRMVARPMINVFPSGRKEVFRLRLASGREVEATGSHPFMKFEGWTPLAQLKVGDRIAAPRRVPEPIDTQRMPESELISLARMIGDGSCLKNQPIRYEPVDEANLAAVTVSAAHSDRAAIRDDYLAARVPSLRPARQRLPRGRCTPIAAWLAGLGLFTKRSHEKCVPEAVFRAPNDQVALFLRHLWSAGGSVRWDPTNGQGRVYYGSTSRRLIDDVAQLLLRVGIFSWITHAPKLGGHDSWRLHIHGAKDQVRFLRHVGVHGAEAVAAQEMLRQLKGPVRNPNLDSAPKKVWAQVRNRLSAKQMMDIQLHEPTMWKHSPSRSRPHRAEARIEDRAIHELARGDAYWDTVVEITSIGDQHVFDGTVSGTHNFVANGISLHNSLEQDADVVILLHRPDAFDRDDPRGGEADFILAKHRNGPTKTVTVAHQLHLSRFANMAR
Test: DnaB intein splicing inhibitors, dose response, biochemical, cell-free fluorescence (AID 449749)
Format: functional

Row | Compound | AC50
13 | O=C(N/N=C1\C/C(=N\NC(=O)c2ccncc2)c2ccccc21)c1ccncc1 | 6.09 µM (active)
14 | COc1ccc(-n2c3nc4ccccc4nc3c3c(=N)oc(C)nc32)cc1 | > 120 µM (inactive)
15 | CC(=O)N(Cc1ccc(F)cc1)C1=C(NCCc2ccccc2)C(=O)c2ccccc2C1=O | 4.93 µM (active)
